According to patent US20250009819A1, “NOVEL PROBIOTICS AND USE THEREOF” (PBLBIOLAB CO., LTD., priority 2021, published 2025):

Legend:
Type in all cases: in vivo, C57BL/6 male mice
Settings in all cases: LPS-treated mice, 1×10^9 CFU/mouse or sulfasalazine 50 mg/kg once a day for 5 days
[1] = tested on: animals with LPS-induced cognitive impairment; assay: Animals with LPS-induced cognitive impairment: improvement effect in spleen
Description: (§1) Hippocampus, colon, and spleen tissues were homogenized by adding 1 ml of RIPA buffer (Gibco) containing protease inhibitor cocktail and centrifuged at 4° C., 13000 rpm for 15 min to obtain supernatant. Indicators of this supernatant were measured using an ELISA kit (Ebioscience).
mRNA was isolated from spleen tissue using the RNA Isolation Kit: RNeasy Mini Kit (QIAGEN), converted to cDNA, and qPCR was performed to measure the expression rates of Tbet, Foxp3, and glyceraldehyde 3-phosphate dehydrogenase (GAPDH). The reaction product was first treated at 95° C. for 30 seconds, followed by 38 cycles of 5 seconds at 95° C. and 30 seconds at 72° C. for analysis.
(§2) C57BL/6 male mice (5 weeks old, 19-21 g) were divided (6 mice in each group) and acclimatized to the laboratory for 1 week. To induce intestinal and brain diseases, mice were intraperitoneally administered Escherichia coli-derived LPS (10 μg/kg) once daily for 5 days. […] Experimental animals in the normal group were orally administered with a physiological saline solution, which was used to suspend lactic acid bacteria. The day following the conclusion of sample administration, the experimental animals were sacrificed, and samples from the brain hippocampus, colon, and spleen were collected. In the Hippocampus, inflammatory indicators, such as IFN-γ, TNF-α, and IL-10, were measured using ELISA. In the colon, intestinal length and inflammatory indicators, such as IFN-γ, TNF-α, and IL-10, were measured. In the spleen, Th1 cells and Treg cells were measured by FACS (Fluorescence-Activated Cell Sorting).

[2] = tested on: animals with LPS-induced cognitive impairment; assay: Animals with LPS-induced cognitive impairment: cognitive improvement, hippocampus indicators
Description: as §1
The Y-shaped maze measurement device is shaped like an alphabetical Y with three arms extending from it, each arm being 25 cm long, 14 cm high, 5 cm wide, and positioned at the same angle. At the end of one arm of the Y-shaped maze, the animal was placed with its head facing out and allowed to freely navigate the arm for 8 minutes. The animal's movements were recorded, and reported as arm entries when the animal entered the arm with its hind paw, and the animal's movement was represented by an alternation, which was defined as one alternation when the animal passed through the three arms in succession. The amount of spontaneous alternation behavior was expressed as a percentage between the actual number of alternations and the maximum possible number of alternations (i.e., the total number of […] minus 2).
The experiment was conducted in a box (40×40×40 cm) made so that the outside could not be seen from the inside. Two objects (A, A′) of the same shape and size were fixedly disposed in a box and the mouse was relocated to start from the center of the box. Then, the number of times the mouse made contact with the two objects was recorded for 10 minutes. After 24 hours, one of the two objects was replaced with a new object (A, B). Then, one original object and one new object were prepared, and the animal's exploration time was measured.
as §2

[3] = tested on: animals with LPS-induced cognitive impairment; assay: Animals with LPS-induced cognitive impairment: colitis improvement (colon)
Description: To 100 mg of colon tissue, 200 μl of 10 mM potassium phosphate buffer (pH 7.0) containing 0.5% hexadecyl trimethyl ammonium bromide was added and homogenized. Then, the supernatant was obtained by centrifugation for 10 minutes at 4° C. and 10,000 g. A volume of 50 μl of the supernatant was added to 0.95 mk of reaction solution (containing 1.6 mM tetramethyl benzidine and 0.1 mM H2O2), reacted at 37° C., and absorbance was monitored over time at 650 nm.
as §1, §2

SMILES: O=C(O)c1cc(/N=N/c2ccc(S(=O)(=O)Nc3ccccn3)cc2)ccc1O [Sulfasalazine, sulfasalazine, reference compound]
- Tbet/Foxp3 ([1]; spleen qPCR): 1.78
- IL-10 ([1]; spleen): 9.78 pg/mg
- Interferon (IFN)-γ ([1]; spleen): 13.55 pg/mg
- NK cell cytoxicity (%) ([1]; spleen): 7.92%
- Phagocytosis (%) ([1]; spleen): 39.59%
- TNF-α ([1]; spleen): 4.51 pg/mg
- TNF-α/IL-10 ([1]; spleen): 0.13
- Exoporation (%) (in NOR task) [2]: 72.02%
- Spontaneous alteration (%) (in Y-maze task) [2]: 69.21%
- IFN-γ/IL-10 ([2]; hippocampus): 0.60
- IL-10 ([2]; hippocampus): 45.79 pg/mg
- Interferon (IFN)-γ ([2]; hippocampus): 27.35 pg/mg
- TNF-α ([2]; hippocampus): 10.98 pg/mg
- TNF-α/IL-10 ([2]; hippocampus): 0.24
- Colon (cm) [3]: 5.0 cm
- IFN-γ/IL-10 [3]: 2.85
- IL-10 [3]: 15.91 pg/mg
- Interferon (IFN)-γ [3]: 45.4 pg/mg
- MPO activity [3]: 4.75 μUnit/mg
- TNF-α [3]: 20.1 pg/mg
- TNF-α/IL-10 [3]: 1.26
